Source: article PMC7794297
Like-named read-outs stand apart in the source and are kept apart here.

Legend:
[1] = target: T1, glucose oxidase (GOx) (Aspergillus niger, UniProt P13006); experiment: Tryptophan fluorescence emission binding experiments with GOx; parameters: purchased Sigma Aldrich; settings: for Kd: GOx 0.8 µM, Tris pH 7.8, 5% DMSO, 10 °C
[2] = target: apo and holo GOx; parameters: method as in PMID 10491329; settings: apo and holo GOx forms; cited from earlier work
[3] = target: T1, glucose oxidase (GOx); experiment: GOx-DCL in presence of DTNB; parameters: purchased Sigma Aldrich; settings: large excess of DTNB
Protocol: The equilibration of the DCL was completed after 24 h (Fig. 9) and the oligomers were identified by HPLC-MS (Supplementary Figs. 4–20). The precise composition of the DCL (with and without GOx), was assessed by measuring the relative peak area (RPA). The normalized change of RPA was used to quantify the protein influence in the final DCL showing the amplification of the dimer of compound 4, that is (4)2 (Fig. 9b). Control experiments were set up to verify that the amplification of the dimer was not due to unspecific binding. Firstly the GOx was replaced by the bovine serum albumin (BSA). A stability study of BSA under the DCL conditions was performed using a fluorescence technique confirming the BSA stability in the DCL experiment (Supplementary Fig. 48)[50].
% v/v DMSO (266 µL). The DCL was stabilized for 24 hours at 6 °C. Then, BS A was removed by ultracentrifugation thr ough an Amicon ultra -filter (10 KDa) and the solution was analyzed by […]
GOx-DCL in presence of DTNB.
GOx- directed DCL: Dithiols 1-2 […]
To elucídate the type of inhibitor, Lineweaver-Burk plot were performed. GOx activity was measured at increasing concentration s of glucose (0.2 mM to 4 mM) and in presence and absence of (4)2 and DTNB. According to fluorescence s tudies and their Kd’ values, the concentration of the inhibitors were chosen. […]
IC50 was determined using different concentrations of inhibitors DTNB and (4)2. […]

[4] = target: T1, glucose oxidase (GOx); experiment: GOx activity assay, glucose oxidase-horseradish peroxidase coupled system with o-dianisidine; assay type: biochemical; parameters: purchased Sigma Aldrich; settings: for 1/Vo: Lineweaver-Burk;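 as to GOx activity: GOx activity followed by o-dianisidine absorbance at 500 nm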
[5] = [Glucose] 1.6 μM, Supplementary Figure 52 a
[6] = [Glucose] 32 μM, Supplementary Figure 52 a
[7] = [Glucose] 48 μM, Supplementary Figure 52 a
[8] = [Glucose] 400 μM, Supplementary Figure 52 a
[9] = [Glucose] 800 μM, Supplementary Figure 52 a
[10] = [Glucose] 2000 μM, Supplementary Figure 52 a
[11] = [Glucose] 4000 μM, Supplementary Figure 52 a
[12] = [Glucose] 8000 μM, Supplementary Figure 52 a
[13] = [Glucose] 12000 μM, Supplementary Figure 52 a
[14] = [Glucose] 20000 μM, Supplementary Figure 52 a
[15] = [DTNB] 8 uM, Supplementary Figure 52 c
[16] = [DTNB] 40 uM, Supplementary Figure 52 c
[17] = [DTNB] 80 uM, Supplementary Figure 52 c
[18] = [DTNB] 200 uM, Supplementary Figure 52 c
[19] = [DTNB] 400 uM, Supplementary Figure 52 c

T1 sequence (P13006 17-605): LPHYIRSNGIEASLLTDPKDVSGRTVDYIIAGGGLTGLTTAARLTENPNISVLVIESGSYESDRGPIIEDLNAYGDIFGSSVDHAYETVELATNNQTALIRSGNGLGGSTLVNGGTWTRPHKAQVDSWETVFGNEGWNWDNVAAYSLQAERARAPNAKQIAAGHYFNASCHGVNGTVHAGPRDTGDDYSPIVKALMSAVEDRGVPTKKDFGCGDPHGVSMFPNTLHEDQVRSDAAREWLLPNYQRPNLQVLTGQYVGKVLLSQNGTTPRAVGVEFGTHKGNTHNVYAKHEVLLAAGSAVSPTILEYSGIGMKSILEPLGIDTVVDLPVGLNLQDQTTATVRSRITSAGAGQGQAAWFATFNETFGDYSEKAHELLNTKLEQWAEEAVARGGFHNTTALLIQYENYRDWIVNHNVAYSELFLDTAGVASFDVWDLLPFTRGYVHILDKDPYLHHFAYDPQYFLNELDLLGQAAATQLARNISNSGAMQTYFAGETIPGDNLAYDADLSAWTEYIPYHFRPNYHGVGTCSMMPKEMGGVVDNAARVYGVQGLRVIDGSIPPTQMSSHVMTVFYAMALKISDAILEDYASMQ

For `OC[C@H]1O[C@@H](O)[C@H](O)[C@@H](O)[C@@H]1O` [β-D-glucose], the Kd ([1]; read-out: apparent dissociation constant) was 1100 ± 20 µM, the Emmsion average [1, 5] was 4205310 and the “Normalized Fluorescence” value [1, 5] was 0.03401. The Emmsion average [1, 6] was 4080311, the “Normalized Fluorescence” value [1, 6] was 0.00328 and the Emmsion average [1, 7] was 4060405. For the same compound, the “Normalized Fluorescence” value [1, 7] was -0.00162, the Emmsion average [1, 8] was 4998302 and the “Normalized Fluorescence” value [1, 8] was 0.229. The Emmsion average [1, 9] was 5886318, the “Normalized Fluorescence” value [1, 9] was 0.4473 and the Emmsion average [1, 10] was 6538644. The “Normalized Fluorescence” value [1, 10] was 0.6077, the Emmsion average [1, 11] was 6499875 and the “Normalized Fluorescence” value [1, 11] was 0.5982. The Emmsion average [1, 12] was 5944287, the “Normalized Fluorescence” value [1, 12] was 0.4616 and the Emmsion average [1, 13] was 7469372. The “Normalized Fluorescence” value [1, 13] was 0.8366, the Emmsion average [1, 14] was 7323012 and the “Normalized Fluorescence” value [1, 14] was 0.8006. The Kd [2] was about 10000 µM.
In the case of `O=C(O)c1cc(SSc2ccc([N+](=O)[O-])c(C(=O)O)c2)ccc1[N+](=O)[O-]` [DTNB, 5,5′-dithiobis-2-nitrobenzoic acid, reference compound], the “Emission Average” value [1, 15] is reported as 1800741, the “Normalized Fluorescence” value [1, 15] is reported as 0.1466 and the “Emission Average” value [1, 16] is reported as 955958. For the same compound, the “Normalized Fluorescence” value [1, 16] was 0.5470, the “Emission Average” value [1, 17] was 361199 and the “Normalized Fluorescence” value [1, 17] was 0.8288. For the same compound, the “Emission Average” value [1, 18] was 25171.8, the “Normalized Fluorescence” value [1, 18] was 0.9881 and the “Emission Average” value [1, 19] was 521.51. The “Normalized Fluorescence” value [1, 19] was 0.9998, the Kd ([1]; apparent dissociation constant, read-out: Kd') was 64 ± 2 µM and the “effect on GOx-directed DCL” value [3] was “prevented the amplification of any other ligands except DTNB”. The “GOx Activity” value ([4]; IC50 data, inhibitor 1.4 nM, glucose 10 mM) was 0.0674 min⁻¹, the “GOx Activity” value ([4]; IC50 data, inhibitor 3.5 nM, glucose 10 mM) was 0.0701 min⁻¹ and the “GOx Activity” value ([4]; IC50 data, inhibitor 7.0 nM, glucose 10 mM) was 0.063 min⁻¹. The “GOx Activity” value ([4]; IC50 data, inhibitor 14.0 nM, glucose 10 mM) was 0.0639 min⁻¹, the “GOx Activity” value ([4]; IC50 data, inhibitor 70.0 nM, glucose 10 mM) was 0.0603 min⁻¹ and the “GOx Activity” value ([4]; IC50 data, inhibitor 140.0 nM, glucose 10 mM) was 0.0454 min⁻¹. For the same compound, the “GOx Activity” value ([4]; IC50 data, inhibitor 700.0 nM, glucose 10 mM) was 0.0399 min⁻¹, the “GOx Activity” value ([4]; IC50 data, inhibitor 1400.0 nM, glucose 10 mM) was 0.0322 min⁻¹ and the “GOx Activity” value ([4]; IC50 data, inhibitor 1428571.0 nM, glucose 10 mM) was 0.0388 min⁻¹. For the same compound, the “GOx Activity” value ([4]; Ki data, inhibitor 3,5·10^-8 M, [Glucose] 0.0002 M) was 0.0024 min⁻¹, the “GOx Activity” value ([4]; Ki data, inhibitor 3,5·10^-8 M, [Glucose] 0.0007 M) was 0.0073 min⁻¹ and the “GOx Activity” value ([4]; Ki data, inhibitor 3,5·10^-8 M, [Glucose] 0.0014 M) was 0.013 min⁻¹. The “GOx Activity” value ([4]; Ki data, inhibitor 3,5·10^-8 M, [Glucose] 0.0028 M) was 0.0254 min⁻¹, the “GOx Activity” value ([4]; Ki data, inhibitor 3,5·10^-8 M, [Glucose] 0.004 M) was 0.0298 min⁻¹ and the “GOx Activity” value ([4]; Ki data, inhibitor 7·10^-8 M, [Glucose] 0.0002 M) was 0.0022 min⁻¹. For the same compound, the “GOx Activity” value ([4]; Ki data, inhibitor 7·10^-8 M, [Glucose] 0.0007 M) was 0.0054 min⁻¹, the “GOx Activity” value ([4]; Ki data, inhibitor 7·10^-8 M, [Glucose] 0.0014 M) was 0.0121 min⁻¹ and the “GOx Activity” value ([4]; Ki data, inhibitor 7·10^-8 M, [Glucose] 0.0028 M) was 0.0197 min⁻¹. The “GOx Activity” value ([4]; Ki data, inhibitor 7·10^-8 M, [Glucose] 0.004 M) was 0.0279 min⁻¹, the “GOx Activity” value ([4]; Ki data, inhibitor 14·10^-8 M, [Glucose] 0.0002 M) was 0.0008 min⁻¹ and the “GOx Activity” value ([4]; Ki data, inhibitor 14·10^-8 M, [Glucose] 0.0007 M) was 0.004 min⁻¹. The “GOx Activity” value ([4]; Ki data, inhibitor 14·10^-8 M, [Glucose] 0.0014 M) was 0.0074 min⁻¹, the “GOx Activity” value ([4]; Ki data, inhibitor 14·10^-8 M, [Glucose] 0.0028 M) was 0.015 min⁻¹ and the “GOx Activity” value ([4]; Ki data, inhibitor 14·10^-8 M, [Glucose] 0.004 M) was 0.0236 min⁻¹. For the same compound, the 1/Vo ([4]; inhibitor 0,07 µM, 1/[glucose] 250 M-1) was 32.9749 min, the 1/Vo ([4]; inhibitor 0,07 µM, 1/[glucose] 357 M-1) was 56.0355 min and the 1/Vo ([4]; inhibitor 0,07 µM, 1/[glucose] 714 M-1) was 65.6495 min. For the same compound, the 1/Vo ([4]; inhibitor 0,07 µM, 1/[glucose] 1430 M-1) was 135.55 min, the 1/Vo ([4]; inhibitor 0,07 µM, 1/[glucose] 5000 M-1) was 532.407 min and the 1/Vo ([4]; inhibitor 0,14 µM, 1/[glucose] 250 M-1) was 37.1744 min. For the same compound, the 1/Vo ([4]; inhibitor 0,14 µM, 1/[glucose] 357 M-1) was 57.2815 min, the 1/Vo ([4]; inhibitor 0,14 µM, 1/[glucose] 714 M-1) was 76.102 min and the 1/Vo ([4]; inhibitor 0,14 µM, 1/[glucose] 1430 M-1) was 148 min. The 1/Vo ([4]; inhibitor 0,14 µM, 1/[glucose] 5000 M-1) was 505.051 min, the “Inhibitor Type” value ([4]; Lineweaver–Burk plots) was “non-competitive” and the Ki ([4]; non-competitive inhibition model, 37 °C, sodium acetate buffer pH 5.1) was 0.2 ± 0.02 µM.
